Laboratory results: patent US20260285850A1, “SUBSTITUTED OXAZOLIDINONES AND IMIDAZOLINONES AS HERBICIDES” (FMC CORPORATION, priority 2023, published 2026)

Experiments:
Type in all cases: in vivo
[1] = tested on: barnyardgrass (Echinochloa crus-galli); test: Test A preemergence soil spray, visual injury rating 0-100; details: 10 days
Summary of the method: (§1)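 Preemergence directed soil spray or postemergence spray (2-10 cm, 1-2 leaf); loam/sand mix; compound in non-phytotoxic solvent + surfactant. Greenhouse, 10 d. Visual injury vs untreated, 0 = none, 100 = complete control.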

[2] = tested on: blackgrass (Alopecurus myosuroides); test: as above; details: 10 days
Summary of the method: as §1

corn (Zea mays) [3] = test: as above; details: 10 days
Summary of the method: as §1

[4] = tested on: green foxtail (Setaria viridis); test: as above; details: 10 days
Summary of the method: as §1

kochia (Bassia scoparia) [5] = test: as above; details: 16 g ai/ha, 0 to 100 scale, 10 days
Summary of the method: as §1

[6] = tested on: oat, wild (wild oat, Avena fatua); test: as above; details: 10 days
Summary of the method: as §1

[7] = tested on: palmer (palmer amaranth, palmer pigweed, Amaranthus palmeri); test: as above; details: 10 days
Summary of the method: as §1

[8] = tested on: ragweed (common ragweed, Ambrosia artemisiifolia); test: as above; details: 10 days
Summary of the method: as §1

[9] = tested on: ryegrass, Italian (italian ryegrass, Lolium multiflorum); test: as above; details: 10 days
Summary of the method: as §1

soybean (Glycine max) [10] = test: as above; details: 10 days
Summary of the method: as §1

[11] = tested on: wheat (Triticum aestivum); test: as above; details: 10 days
Summary of the method: as §1

[12] = tested on: barnyardgrass (Echinochloa crus-galli); test: Test A postemergence application, visual injury rating 0-100
Summary of the method: as §1

[13] = tested on: blackgrass (Alopecurus myosuroides); test: as above
Summary of the method: as §1

corn (Zea mays) [14] = test: as above
Summary of the method: as §1

[15] = tested on: galium (catchweed bedstraw, Galium aparine); test: as above
Summary of the method: as §1

[16] = tested on: green foxtail (Setaria viridis); test: as above
Summary of the method: as §1

[17] = tested on: horseweed (Erigeron canadensis); test: as above
Summary of the method: as §1

kochia (Bassia scoparia) [18] = test: as above
Summary of the method: as §1

[19] = tested on: oat, wild (wild oat, Avena fatua); test: as above
Summary of the method: as §1

[20] = tested on: palmer (palmer amaranth, palmer pigweed, Amaranthus palmeri); test: as above
Summary of the method: as §1

[21] = tested on: ragweed (common ragweed, Ambrosia artemisiifolia); test: as above
Summary of the method: as §1

[22] = tested on: ryegrass, Italian (italian ryegrass, Lolium multiflorum); test: as above
Summary of the method: as §1

soybean (Glycine max) [23] = test: as above
Summary of the method: as §1

[24] = tested on: wheat (Triticum aestivum); test: as above
Summary of the method: as §1

[25] = tested on: barnyardgrass (Echinochloa crusgalli); test: Test B flooded paddy test, visual plant response rating 0-100; details: 250 g ai/ha, Flood, applied to paddy water, evaluated after 13 days
Summary of the method: (§2)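 Paddy-water application: test compounds went directly into water flooded 3 cm above the soil surface, with plants at 2 leaves. After a 13-day greenhouse period, responses were judged by eye relative to controls; a dash marks an untested entry.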

[26] = tested on: ducksalad (Heteranthera limosa); test: as above; details: 250 g ai/ha, Flood, applied to paddy water, evaluated after 13 days
Summary of the method: as §2

rice (Oryza sativa) = test: as above; details: 250 g ai/ha, Flood, applied to paddy water, evaluated after 13 days
Summary of the method: as §2

[27] = tested on: sedge, umbrella (small-flower umbrella sedge, Cyperus difformis); test: as above; details: 250 g ai/ha, Flood, applied to paddy water, evaluated after 13 days
Summary of the method: as §2

[28] = 62 g ai/ha, 0 = no effect, 100 = complete control
[29] = 62 g ai/ha, postemergence, 10 days, 0 = no effect, 100 = complete control
[30] = Postemergence, 16 g ai/ha, greenhouse 10 days, 0 no effect, 100 complete control

SMILES: Cc1cc(C)cc(N2CC(C)(C(=O)NC3C=CC(C(=O)O)C3)OC2=O)c1 (stereo not drawn) [Compound 126]
- Barnyardgrass plant response rating ([1]; 16 g ai/ha, 0 to 100 scale): 10
- Barnyardgrass plant response rating (0-100) [1, 28]: 90
- Blackgrass plant response rating ([2]; 16 g ai/ha, 0 to 100 scale): 0
- Blackgrass plant response rating (0-100) [2, 28]: 40
- Corn plant response rating (corn (Zea mays) [3]; 16 g ai/ha, 0 to 100 scale): 0
- Corn plant response rating (0-100) (corn (Zea mays) [3]; [28]): 40
- Foxtail, Green plant response rating ([4]; 16 g ai/ha, 0 to 100 scale): 0
- Foxtail, Green plant response rating (0-100) [4, 28]: 10
- Kochia plant response rating (kochia (Bassia scoparia) [5]): 0
- Oat, Wild plant response rating ([6]; 16 g ai/ha, 0 to 100 scale): 0
- Oat, Wild plant response rating (0-100) [6, 28]: 30
- Pigweed, Palmer plant response rating ([7]; 16 g ai/ha, 0 to 100 scale): 20
- Pigweed, Palmer plant response rating (0-100) [7, 28]: 50
- Ragweed plant response rating ([8]; 16 g ai/ha, 0 to 100 scale): 0
- Ragweed plant response rating (0-100) [8, 28]: 0
- Ryegrass, Italian plant response rating ([9]; 16 g ai/ha, 0 to 100 scale): 0
- Ryegrass, Italian plant response rating (0-100) [9, 28]: 40
- Soybean plant response rating (soybean (Glycine max) [10]; 16 g ai/ha, 0 to 100 scale): 0
- Soybean plant response rating (0-100) (soybean (Glycine max) [10]; [28]): 0
- Wheat plant response rating ([11]; 16 g ai/ha, 0 to 100 scale): 20
- Wheat plant response rating (0-100) [11, 28]: 90
- Barnyardgrass plant response rating (0-100) [12, 29]: 90
- Barnyardgrass plant response rating (0 to 100 scale) [12, 30]: 50
- Blackgrass plant response rating (0-100) [13, 29]: 90
- Blackgrass plant response rating (0 to 100 scale) [13, 30]: 60
- Corn plant response rating (0-100) (corn (Zea mays) [14]; [29]): 100
- Corn plant response rating (0 to 100 scale) (corn (Zea mays) [14]; [30]): 20
- Galium plant response rating (0-100) [15, 29]: 80
- Galium plant response rating (0 to 100 scale) [15, 30]: 70
- Foxtail, Green plant response rating (0-100) [16, 29]: 30
- Foxtail, Green plant response rating (0 to 100 scale) [16, 30]: 0
- Horseweed plant response rating (0-100) [17, 29]: 20
- Horseweed plant response rating (0 to 100 scale) [17, 30]: 0
- Kochia plant response rating (0-100) (kochia (Bassia scoparia) [18]; [29]): 30
- Kochia plant response rating (0 to 100 scale) (kochia (Bassia scoparia) [18]; [30]): 0
- Oat, Wild plant response rating (0-100) [19, 29]: 90
- Oat, Wild plant response rating (0 to 100 scale) [19, 30]: 30
- Pigweed, Palmer plant response rating (0-100) [20, 29]: 30
- Pigweed, Palmer plant response rating (0 to 100 scale) [20, 30]: 10
- Ragweed plant response rating (0-100) [21, 29]: 30
- Ragweed plant response rating (0 to 100 scale) [21, 30]: 0
- Ryegrass, Italian plant response rating (0-100) [22, 29]: 60
- Ryegrass, Italian plant response rating (0 to 100 scale) [22, 30]: 30
- Soybean plant response rating (0-100) (soybean (Glycine max) [23]; [29]): 60
- Soybean plant response rating (0 to 100 scale) (soybean (Glycine max) [23]; [30]): 0
- Wheat plant response rating (0-100) [24, 29]: 90
- Wheat plant response rating (0 to 100 scale) [24, 30]: 30
- Plant response rating, Barnyardgrass (0 to 100 scale, 0 is no effect and 100 is complete control) [25]: 25
- Plant response rating, Ducksalad (0 to 100 scale, 0 is no effect and 100 is complete control) [26]: 55
- Plant response rating, Rice (0 to 100 scale, 0 is no effect and 100 is complete control) (rice (Oryza sativa)): 5
- Plant response rating, Sedge, Umbrella (0 to 100 scale, 0 is no effect and 100 is complete control) [27]: 35
